# Experimental data as given in patent US20220233523A1, “ANTIBIOTIC POTENTIATION FOR NONTUBERCULOUS MYCOBACTERIAL DISEASE” (priority 2019, published 2022).
# Several values for one entry are separate records, joined by “and”; a condition that tells them apart may be missing. Equal values may be shown once. Marks after values point to notes of the source that are not given here.
# Experiments:
# MAH104 biofilms = assay type: cell-based, Mycobacterium avium subsp hominissuis 104 (MAH104); conditions: for lower capacity of biofilms to use the substrate compared with planktonic cultures: O.D.590 nm, biofilm vs planktonic; for metabolized by biofilm cultures: Biolog PM1/PM2A plates; for Biofilm (metabolite used): Biolog PM1/PM2A substrates, 7 days at 37° C., end-point assay
# Experimental: (§1) Metabolic phenotype study was performed with planktonic and biofilm cultures using the 96-well plates PM1 and PM2A (BIOLOG™, Hayward, Calif.). The assays with planktonic cells and biofilms were made at the same time. Each plate contains carbon substrates and one negative control well, in which the bacteria is tested without any substrate. The tests with planktonic and biofilm cultures were performed at the same time and the culture inoculum have the same number of passages. […] The experiments were made as an end-point assay.
# The cultures of biofilms were established for 7 days in regular polystyrene 96 well plates, not in PM Biolog plates, as described above with a minor difference. […] (total of 14 days of biofilm incubated at 37° C.). To obtain spectrophotometric measurements from biofilm cultures (O.D.590 nm), the plate was centrifuged for 20 minutes at 3500 rpm at 20° C., which reduce bacteria interference with the readings, and biofilm supernatant was transferred to a new 96 well plates for O.D.590 nm measurement.
# (§2) Experiments were performed three times as an end-point assay. If planktonic and/or biofilm cultures were able to metabolize a specific metabolite substrate, electrons from NADH reduce the Redox dye in an irreversible reaction that generates a purple color in the PM plate wells. The signal (+) and (−) indicates, respectively, whether a purple color was produced or not. Abiotic reductions of the Redox dye were assessed through adding bacteria-free GN/GP-IF-0a fluid in the wells. Negative control corresponds to the wells without any metabolic substrate.
# [1] = test system: MAH (strain 104) in established biofilms; assay: Treatment of established MAH biofilms with antibiotics and metabolites (CFU); assay type: cell-based, Mycobacterium avium subsp hominissuis 104 (MAH104); conditions: for numbers of bacteria in biofilms / CFU/ml at 14 days: established biofilms; for numbers of bacteria in biofilms: antibiotic alone or co-treatment; for CFU/ml at 14 days: clarithromycin 16 μg/ml, amikacin 4 μg/ml, 0.05% propionic or butyric acid, 0.2% glycerol, none 4.2 +/− 0.5 × 10^8
# Experimental: To assess the antibiotic tolerance of MAH biofilms to amikacin (4 μg/ml) and clarithromycin (16 μg/ml), biofilms were formed for 14 days as described herein. […] As a negative control, biofilms were incubated only with non-supplemented 7H9 without any antibiotics. […] Subsequently, 100 μl of 0.02% of Triton X-100 (final concentration 0.01%) was added to the established biofilms to mix, dilute and perform CFU analysis with the entire population of biofilms (attached and unattached).
# Mycobacteria biofilms were first established and then treated or not treated with antibiotics. In parallel, biofilms were also co-treated with antibiotics and the targeted metabolites.
# [2] = test system: intracellular MAH 104 in THP-1 macrophages; assay: Treatment of MAH inside human THP-1 macrophages with antibiotics and metabolites (CFU); assay type: cell-based, Mycobacterium avium subsp hominissuis 104 (MAH104); conditions: for CFU/ml of macrophage lysate, 2 h: 2 h (baseline); for CFU/ml of macrophage lysate, 4 days: clarithromycin 16 μg/ml, amikacin 4 μg/ml, none 8.2 +/− 0.3 × 10^5
# Experimental: Human THP-1 cell line (TIB-202) (American Type Culture Collection, Manassas, Va.) was cultivated in RPMI-1640 medium with 10% of heat-inactivated fetal bovine serum (FBS, GEMINI B10-PRODUCTS, Sacramento, Calif.), at 37° C. with 5% CO2. The THP-1 cells were maintained in 75 cm^2 tissue culture flasks. The differentiation of THP-1 monocytes into macrophages with PMA (phorbol 12-myristate 13-acetate) (SIGMA ALDRICH) and intracellular antibiotic killing assays were performed as previously described (Rojony et al., Clinical proteomics 2019; 16:39). […] As a negative control, differentiated THP-1 cells were incubated without any antibiotics and with no metabolites. THP-1 cells were replenished with new media containing antibiotics, or no antibiotic, every other day. Cells were lysed at 2 h (baseline) and day 4 and subsequently the number of viable bacteria was determined by CFU counting on 7H10 agar plates.
# MAH 3388 biofilm = assay: Amikacin with short-chain fatty acids on biofilm of lung isolate MAH 3388; assay type: cell-based; conditions: amikacin concentration: 4 mg/ml; untreated 9.4 +/− 0.2 × 10^7
# Experimental: As a negative control, biofilms were incubated only with non-supplemented 7H9 without any antibiotics. […] Subsequently, 100 μl of 0.02% of Triton X-100 (final concentration 0.01%) was added to the established biofilms to mix, dilute and perform CFU analysis with the entire population of biofilms (attached and unattached).
# Biofilms were established from an MAH strain isolated from the lungs of a patient (MAH 3388).
# MAH 3393 biofilm = assay: Amikacin with short-chain fatty acids on biofilm of lung isolate MAH 3393; assay type: cell-based; conditions: amikacin concentration: 4 mg/ml; untreated 1.0 +/− 0.8 × 10^8
# sessile MAH104 cells = assay: Growth and biofilm formation of pre-attached (sessile) cells in nutrient-limited media; assay type: cell-based, Mycobacterium avium subsp hominissuis 104 (MAH104); conditions: 0.05% fatty acids in non-supplemented 7H9, 7 days; blank 0.091±0.007
# Experimental: (§3) Assays with biofilms incubated with propionic acid, butyric acid, and glycerol were performed to test whether these metabolites affect the formation of biofilms. All the experiments were made in non-supplemented 7H9. The effect of these metabolites was evaluated during biofilm formation, in pre-established biofilms and in M. avium cells pre-attached to polystyrene. To evaluate the effect of targeted metabolites during biofilm formation, mycobacteria suspensions were prepared and inoculated in 96 wells polystyrene plates, as already described, and biofilms were formed in the presence or not of the short-chain fatty acids at different concentrations (1%, 0.5%, 0.1%, 0.05% and 0.01%). For glycerol, only 0.2% was used. The biofilms were formed in 7H9 media at 37° C. for 7 days. For pre-established biofilms, MAH104 was again inoculated in 96 wells plates and biofilms were formed as described herein. […] It was also evaluated whether these metabolites could promote the growth of MAH104 cells present in biofilms through the measurement of […] every 24 hours. Finally, mycobacteria suspension with low density made in 7H9 broth (containing 1×10^6 bacteria/ml) were seeded in 96 wells polystyrene plates and incubated for 7 days at 37° C. […] The growth of pre-attached bacterial cells was followed every 24 hours through O.D.595 nm. The biofilm formation was evaluated by crystal violet.
# Low mycobacterial cells density (10^6/ml) resuspended in non-supplemented 7H9 media were inoculated in 96-well plates and incubated for 7 days at 37° C. to allow the bacteria to attach into polystyrene. The supernatant was discarded to remove planktonic cells and pre-attached bacterium was incubated for 7 days in nutrient-limited media (non-supplemented 7H9). […] The growth of sessile mycobacteria was followed by O.D.595 nm measurement and biofilm formation was determined through crystal violet (O.D.570 nm), since the multiplication of bacteria cells is linked with the formation of biofilms. No growth was observed when sessile MAH104 cells were cultivated in non-supplemented 7H9 broth. […] It is also important to highlight that the O.D.570 nm value for sessile MAH104 forms incubated with non-supplemented 7H9 (O.D.570 nm=0.11±0.039) had no significant difference in comparison with the blank (O.D.570 nm=0.091±0.007) (P=0.37), showing no biofilm formation. […] FIG. 3A-D.
# [3] = test system: M. avium 104 static biofilms; assay: Static biofilm formation in the presence of metabolites (crystal violet); assay type: cell-based, Mycobacterium avium subsp hominissuis 104 (MAH104); conditions: 1% and 0.5%, 7H9, 7 days at 37° C., crystal violet
# Experimental: Static biofilms were used in the present study as described previously (Rose S J, Bermudez L E., Infection and Immunity 2014; 82:405-12). Briefly, mycobacteria were taken from 7H10 agar plates and resuspended in deionized water (10^9 of colony forming units/ml; CFU/ml). The bacterial suspension was then washed 3 times with deionized water to remove any remaining of 7H10 media (3500 rpm for 20 minutes at 20° C.). After washing, the MAH104 were resuspended in 7H9 medium without any carbon sources (OADC, glycerol, tween 20 and tween 80) (non-supplemented 7H9) and suspensions were left alone to allow clumped bacteria to settle. The top half of the suspension was transferred to new tube and adjusted to 1×10^8 CFU/ml, using visual turbidity and optical density. Suspensions were inoculated in 96-well polystyrene plates (BD, Franklin Lakes, N.J.) (100 μl for each well [or 10^7 bacteria per well]) and biofilms were formed at 37° C. for 7 days or for 14 days when indicated. […] The raw O.D. at 570 nm values were discounted from O.D. 570 nm average of blank wells (wells with only 7H9 media).
# as §3
# The next step was to evaluate the capacity of tested substrates to promote the growth of mycobacteria cells that are present in biofilms. […] MAH 104 cells in the presence of non-supplemented 7H9 were used as a negative control. […]
# [4] = test system: planktonic MAH104 cultures; assay type: cell-based, Mycobacterium avium subsp hominissuis 104 (MAH104); conditions: for Planktonic (metabolite used): Biolog PM1/PM2A plates, 7 days at 37° C., end-point assay
# Experimental: as §1
# To prepare the inoculum of planktonic cells for PM plates, MAH104 was cultivated in 7H9 medium with 10% OADC and 0.05% of tween20. After the cells reached a mid-logarithmic phase (O.D. at 595 nm=0.3 to 0.6), the cultures were harvested and washed three times with deionized water (centrifugation conditions; 3500 rpm for 20 minutes at 20° C.) and incubated in water for 24 hours at 25° C. as a starvation step. […] A volume of 100 μl of this final bacteria suspension was inoculated into the wells of PM1 and PM2A plates. These plates were incubated for 7 days at 37° C. and after the incubation the O.D. at 590 nm of the plates were measured.
# as §2
# [5] = cited from earlier work
molecule,measurement,setting,value
CC(=O)O [Acetic Acid],lower capacity of biofilms to use the substrate compared with planktonic cultures,MAH104 biofilms,2.55 fold
CC(=O)CC(=O)O [Acetoacetic acid],metabolized by biofilm cultures,MAH104 biofilms,unable to metabolize
"NCC[C@H](O)C(=O)N[C@@H]1C[C@H](N)[C@@H](O[C@H]2O[C@H](CN)[C@@H](O)[C@H](O)[C@H]2O)[C@H](O)[C@H]1O[C@H]1O[C@H](CO)[C@@H](O)[C@H](N)[C@H]1O [Amikacin, reference compound]",numbers of bacteria in biofilms,[1],5.8±0.5×10^7
same,CFU/ml at 14 days,[1],5.8 +/− 0.5 × 10^7*(1) CFU/ml
same,"CFU/ml of macrophage lysate, 2 h",[2],4.5 +/− 0.4 × 10^5 CFU/ml
same,"CFU/ml of macrophage lysate, 4 days",[2],4.8±0.5×10^4 CFU/ml and 4.8 +/− 0.5 × 10^4* (1) CFU/ml
same,"CFU/mL, MAH 3388",MAH 3388 biofilm,5.4 +/− 0.9 × 10^7*(1) CFU/mL
same,"CFU/mL, MAH 3393",MAH 3393 biofilm,5.2 +/− 0.6 × 10^7*(1) CFU/mL
CCCCCC(=O)O [Caproic acid],"O.D.570 nm of sessile MAH104 (crystal violet, biofilm formation)",sessile MAH104 cells,0.177±0.017
same,killing capacity of clarithromycin,"[1]; established M. avium 104 biofilms, 72 hours, FIG. 4A-D",increase
same,CFU/ml at 14 days,[1],6.4 +/− 0.2 × 10^6*(1) CFU/ml
same,biofilm formation with 1% and 0.5% of fatty acid,[3],significant decrease
same,lower capacity of biofilms to use the substrate compared with planktonic cultures,MAH104 biofilms,4.27 fold
same,"CFU/ml of macrophage lysate, 2 h",[2],3.1 +/− 0.4 × 10^5 CFU/ml
same,"CFU/ml of macrophage lysate, 4 days",[2],5.3 +/− 0.4 × 10^5* (1) CFU/ml
"CC[C@H]1OC(=O)[C@H](C)[C@@H](O[C@H]2C[C@@](C)(OC)[C@@H](O)[C@H](C)O2)[C@H](C)[C@@H](O[C@@H]2O[C@H](C)C[C@H](N(C)C)[C@H]2O)[C@](C)(OC)C[C@@H](C)C(=O)[C@H](C)[C@@H](O)[C@]1(C)O [Clarithromycin, reference compound]",numbers of bacteria in biofilms,[1],8.9±0.8×10^7
same,CFU/ml at 14 days,[1],8.9 +/− 0.8 × 10^7*(1) CFU/ml
same,"CFU/ml of macrophage lysate, 2 h",[2],4.5 +/− 0.4 × 10^5 CFU/ml
same,"CFU/ml of macrophage lysate, 4 days",[2],3.9±0.3×10^4 CFU/ml and 3.9 +/− 0.3 × 10^4* (1) CFU/ml
COC(=O)C(C)=O [Methyl Pyruvate],lower capacity of biofilms to use the substrate compared with planktonic cultures,MAH104 biofilms,1.8 fold
CC(=O)C(=O)O [Pyruvic acid],lower capacity of biofilms to use the substrate compared with planktonic cultures,MAH104 biofilms,2.21 fold
O=C(O)CCCCCCCCC(=O)O [Sebacic acid],planktonic O.D.590 nm,"[4]; Biolog plate, end-point",0.210±0.069
same,Biofilm O.D.590 nm,"MAH104 biofilms; Biolog plate, end-point",0.411±0.059
NC[C@H]1O[C@H](O[C@H]2[C@H](O)[C@@H](O[C@H]3O[C@H](CO)[C@@H](O)[C@H](N)[C@H]3O)[C@H](N)C[C@@H]2N)[C@H](N)C[C@@H]1O [tobramycin],concentration in expectorated sputum (Mean),[5]; 10 minutes after delivery of 300 mg by nebulizer,"1,237 μg/g of sputum"
same,concentration in the lung epithelial fluid (induced sputum),[5]; after 300 mg delivered by nebulizer,~128 µg/g
CCC(O)C(=O)O (stereo not drawn) [α-Hydroxy Butyric acid],metabolized by biofilm cultures,MAH104 biofilms,unable to metabolize
CCC(=O)C(=O)O [α-Keto-Butyric acid],metabolized by biofilm cultures,MAH104 biofilms,unable to metabolize
polysorbate 20 [Tween 20],Planktonic (metabolite used),[4],+
same,Biofilm (metabolite used),MAH104 biofilms,+
same,lower capacity of biofilms to use the substrate compared with planktonic cultures,MAH104 biofilms,5.4 fold
polysorbate 40 [Tween 40],Planktonic (metabolite used),[4],+
same,Biofilm (metabolite used),MAH104 biofilms,+
same,lower capacity of biofilms to use the substrate compared with planktonic cultures,MAH104 biofilms,3.8 fold
polysorbate 80 [Tween 80],Planktonic (metabolite used),[4],+
same,Biofilm (metabolite used),MAH104 biofilms,+
same,lower capacity of biofilms to use the substrate compared with planktonic cultures,MAH104 biofilms,3.45 fold
